Assays:
[1] = test system: orthotopic MCF7 human breast cancer cell line xenograft; experiment: Anti-tumor efficacy against orthotopic MCF7 human breast cancer cell line xenograft in NOD/SCID mice; type: in vivo, female NOD/SCID mice; conditions: for Tumor volume changes from baseline: Median: amcenestrant 10 mg/kg BID, everolimus 10 mg/kg BIW; for Regressions Complete: animals with complete regression / animals in group; for Regressions Complete / Regressions Partial / Median % of regressions on day 28 / ΔT/ΔC in % at day 28: amcenestrant 10 mg/kg PO BID, everolimus 10 mg/kg PO BIW; for Regressions Partial: animals with partial regression / animals in group; for Biological Interpretation: based on ΔT/ΔC at day 28; for ΔT/ΔC in % at day 28: 28 days
Method: In the present study, the anti-tumor efficacy of amcenestrant combined with everolimus was investigated after 28 days treatment against an orthotopic MCF7 human breast cancer cell line xenograft in female NOD/SCID mice.
The treated groups included amcenestrant at 10 mg/kg alone, everolimus at 10 mg/kg alone, and the combination of amcenestrant and everolimus at the same dose and regime.
For 28 days, amcenestrant was orally dosed twice a day (BID), and everolimus was orally dosed twice a week (BIW). Anti-tumor efficacy was evaluated by tumor volume measurement.
Female NOD/SCID mice were obtained from GemPharmatech Co., Ltd (Nanjing University National Resource Center for Mutant Mice, Model Animal Research Center) (Nanjing, CHINA). Animals were allowed to acclimate for at least four days before the study enrollment. Mice were 7 to 8 weeks old and weighed between 22.5 and 28.4 grams at the beginning of the treatments. These animals were housed under conditions outlined in the guidelines approved by the Institutional Animal Care and Use Committee (IACUC) of CrownBio following the guidance of the Association for Assessment and Accreditation of Laboratory Animal Care (AAALAC).
MCF7 cells were obtained from the American Type Culture Collection (ATCC® HTB-22™). The MCF7 tumor cells were maintained in vitro with MEM medium supplemented with 10% fetal bovine serum, 0.01 mM non-essential amino acid, 0.01 mg/ml bovine insulin, and 2 mM L-glutamine at 37° C. in an atmosphere of 5% CO2 in air. The cells in exponential growth phase were harvested and quantitated by cell counter before tumor inoculation.
The mouse was subcutaneously implanted with estrogen pellets (0.18 mg/pellet, 17β-estradiol, Innovative Research of America, Sarasota, Florida, USA), hereafter referred to as “E2 supplement”, at the right flank one day before the tumor inoculation. Each mouse was inoculated with MCF-7 tumor cells (2×10 e7) in 0.25 ml of PBS/Matrigel (1:1) mixture at the right mammary fat pad for tumor development.
Everolimus (Manufacturer: Selleck; Lot number: S1120) was formulated in 30% propylene glycol (dissolve first): 5% Tween 80: 65% ddH2O (double distilled water).
Dose volume for amcenestrant and everolimus for oral administration: 10 ml/kg.
Doses: amcenestrant at 10 mg/kg and everolimus at 10 mg/kg in the above volume.
Animal body weight was assessed daily.
Vehicle treated animals were used as controls.
The primary efficacy end points include tumor volume changes from baseline summarized by the ratio of medians of tumor volume changes from baseline between the treated and control groups (ΔT/ΔC). Changes in tumor volume for each treated (T) and control (C) group were calculated for each animal on each day by subtracting the tumor volume on the day of first treatment (staging day) from the tumor volume on the specified observation day. The median ΔT was calculated for the treated group and the median ΔC was calculated for the control group. The ratio ΔT/ΔC was calculated and expressed as percentage: […]
Percent tumor regression is defined as % (percentage) of tumor volume decrease in the treated group on a specified observation day compared to its volume when the study was initiated. At a specific time point (t) and for each animal, the regression percentage was calculated using the following formula: […]
The median percent regression for a group on a given day was then calculated by taking the median of individual % regression values calculated for each animal in the group. The day of calculation was determined by the day when ΔT/ΔC is calculated, except if median percent regression was not representative of the activity of the group. In this case, the day was determined by the first day when the median percent regression was maximal.
A two-way analysis of variance (ANOVA) with factors treatment and day (repeated) was performed on tumor volume changes from baseline.

[2] = amcenestrant 10 mg/kg BID, everolimus 10 mg/kg BIW, 28 days
Method: The animals required for experiment (plus extra) were pooled and implanted with MCF7 cells. On day 0 (12 days post implantation), the mice were pooled and randomly distributed to the treatment and control groups (10 mice per group), where median tumor volumes for each group was 119 mm^3. Treatments of amcenestrant and everolimus were initiated on day 1. For 28 days, amcenestrant was orally administered at 10 mg/kg BID (8 hours apart), and everolimus was orally administered at 10 mg/kg BIW. Animal body weight was assessed daily.
The dosages are expressed in mg/kg and based on daily body weight per animal. Vehicle treated animals were used as controls. Mice were checked daily for adverse clinical reactions. Individual mice were weighed daily until the end of the experiment. Mice were euthanized when morbid or weight loss ≥20% was observed. Tumors were measured with a caliper twice weekly until final sacrifice. When a tumor size reached approximately 3000 mm^3 or when there were animal health issues (40% area of a tumor ulcerated), animals were euthanized, and date of death recorded. Solid tumor volumes were estimated from two-dimensional tumor measurements and calculated according to the following equation:
Animal body weight included the tumor weight.

Row | Compound | Tumor volume changes from baseline: Median ([1]; Day 4) [mm^3] | Tumor volume changes from baseline: Median ([1]; Day 7) [mm^3] | Tumor volume changes from baseline: Median ([1]; Day 11) [mm^3] | Tumor volume changes from baseline: Median ([1]; Day 14) [mm^3] | Tumor volume changes from baseline: Median ([1]; Day 18) [mm^3] | Tumor volume changes from baseline: Median ([1]; Day 21) [mm^3] | Tumor volume changes from baseline: Median ([1]; Day 25) [mm^3] | Tumor volume changes from baseline: Median ([1]; Day 28) [mm^3] | Regressions Complete [1] | Regressions Partial [1] | Biological Interpretation [1] | Median % of regressions on day 28 [1] [%] | ΔT/ΔC in % at day 28 [1] [%] | Drug-related body weight loss/animal death [2]
1 | O=C(O)c1ccc2c(c1)CCCC(c1ccc(Cl)cc1Cl)=C2c1ccc(O[C@H]2CCN(CCCF)C2)cc1 [Amcenestrant, 6-(2,4-dichlorophenyl)-5-[4-[(3S)-1-(3-fluoropropyl)pyrrolidin-3-yl]oxyphenyl]-8,9-dihydro-7H-benzo[7]annulene-2-carboxylic acid] | 22.0 | 32.5 | 60.0 | 76.5 | 40.0 | −2.0 | −38.0 | −42.0 | 0/9 | 8/9 | Very active (ΔT/ΔC<0% is considered as tumor regression (very active)) | −13 | −13 | no drug-related body weight loss/animal death was observed
2 | CO[C@H]1C[C@@H]2CC[C@@H](C)[C@@](O)(O2)C(=O)C(=O)N2CCCC[C@H]2C(=O)O[C@H]([C@H](C)C[C@@H]2CC[C@@H](OCCO)[C@H](OC)C2)CC(=O)[C@H](C)/C=C(\C)[C@@H](O)[C@@H](OC)C(=O)[C@H](C)C[C@H](C)/C=C/C=C/C=C/1C [Everolimus] | 28.5 | 48.0 | 65.0 | 81.5 | 10.0 | −48.0 | −47.0 | −53.0 | 0/6 | 5/6 | Very active (ΔT/ΔC<0% is considered as tumor regression (very active)) | −17 | −17 | no drug-related body weight loss/animal death was observed
